Experimental findings from US12350270B2, “Antimalarial agents” (Merck Sharp & Dohme LLC, priority 2019, dated 2025) are described below.

The EC50 is the concentration giving half of the maximal effect. Low values mean greater potency, high ones weaker potency.

The test system of one experiment is parasites (ring stage, in human red blood cell culture). Kind of experiment: Parasite LDH growth assay (antiparasite potency, Parasite Assay). It is filed as cell-based, Plasmodium falciparum. The following applies: 0.7% rings, 2% haematocrit, 72 hours at 37° C., LDH readout of parasite growth. In short, it runs like this:
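Growth was read by an LDH assay after a freeze–thaw cycle (−80 °C overnight, 4 h thaw at RT). Before that, parasites grew with compound for 72 h at 37 °C under gassed, humidified conditions. The input was a ring-stage culture adjusted to 0.7% parasitemia and 2% haematocrit in serum (5%)/albumax (0.5%)-supplemented RPMI-Hepes.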
Compound `CCC1(CC)CC(=O)N(C2c3cc(C(=O)N[C@@H]4c5ccccc5C[C@H]4O)ccc3OC2(C)CO)C(=N)N1` (single isomer, unassigned) [Example 178B] returned an EC50 of 2.2 nM.
Same read-out and setting: for `CCC1C[C@@H](N2C(=N)NC(CC)(CC)CC2=O)c2cc(C(=O)N[C@@H]3c4ccccc4C[C@H]3O)ccc2O1` (single isomer, unassigned) [Example 9A] the value was 0.9 nM.
Same read-out and setting: for `CCC1(CC)CC(=O)N([C@H]2c3cc(C(=O)N[C@H]4CC(C)(C)Oc5ccccc54)ccc3O[C@]2(C)COC)C(=N)N1` (single isomer, unassigned) [Example 74A] the value was 0.3 nM; for `CC[C@]1(C)CC(=O)N([C@@H]2CCOc3ccc(C(=O)NC4c5c(F)cccc5OCC4(C)O)cc32)C(=N)N1` (single isomer, unassigned) [Example 193C], 19.5 nM.
Still for that read-out and setting: for `CCC1(CC)CC(=O)N([C@@H]2CCOc3ccc(C(=O)NC4c5ccc(OC)cc5OCC4(C)O)cc32)C(=N)N1` (single isomer, unassigned) [Example 258C] the value was 226 nM; for `CCC1(CC)CC(=O)N([C@@H]2CCOc3ccc(C(=O)NC4c5ccccc5OC4(C)CO)cc32)C(=N)N1` (single isomer, unassigned) [Example 176A], 29.2 nM.

The same experiment, now with this note: Plasmodium falciparum, Erythrocyte, 72 h, 0.7% rings, 2% haematocrit, 72 hours at 37° C., LDH readout of parasite growth.
`CC1(C)CC(=O)N(C2CCS(=O)(=O)c3ccc(C(=O)N[C@@H]4c5ccccc5OC[C@@]4(C)O)cc32)C(=N)N1` (stereo partly drawn) [Example 228, N-[(3S,4R)-3-hydroxy-3-methyl-chroman-4-yl]-4-(2-imino-4,4-dimethyl-6-oxo-hexahydropyrimidin-1-yl)-1,1-dioxo-3,4-dihydro-2H-thiochromene-6-carboxamide]: a half-maximal response (EC50) required 282 nM.
The same measure, in the same setting: for `COC1COc2ccc(C(=O)N[C@@H]3c4ccccc4OC[C@]3(C)O)cc2C1N1C(=N)NC(C)(C)CC1=O` (stereo partly drawn) [Example 185, N-[(3R,4R)-3-hydroxy-3-methyl-chroman-4-yl]-4-(2-imino-4,4-dimethyl-6-oxo-hexahydropyrimidin-1-yl)-3-methoxy-chromane-6-carboxamide] the value was 50.3 nM.
Still for that read-out and setting: for `CCC1(CC)CC(=O)N([C@@H]2CCOc3ccc(C(=O)NC(CCc4ccccc4)c4ccccc4)cc32)C(=N)N1` (stereo partly drawn) [Example 264, (4R)-4-(4,4-diethyl-2-imino-6-oxo-hexahydropyrimidin-1-yl)-N-(1,3-diphenylpropyl)chromane-6-carboxamide] the value was 3.3 nM; for `CCC1(CC)CC(=O)N([C@@H]2CCOc3c(Cl)cc(C(=O)N[C@@H]4CC(C)(C)Oc5ccccc54)cc32)C(=N)N1` [Example 26B, (R)-8-chloro-4-(4,4-diethyl-2-imino-6-oxotetrahydropyrimidin-1(2H)-yl)-N-((R)-2,2-dimethylchroman-4-yl)chromane-6-carboxamide], 180 nM.
In turn, `CCC1(CC)CC(=O)N([C@H]2CCS(=O)(=O)c3ccc(C(=O)N[C@@H]4c5ccccc5C[C@]4(C)O)cc32)C(=N)N1` [Example 263, (4S)-4-(4,4-diethyl-2-imino-6-oxo-hexahydropyrimidin-1-yl)-N-[(1R,2S)-2-hydroxy-2-methyl-indan-1-yl]-1,1-dioxo-3,4-dihydro-2H-thiochromene-6-carboxamide] had an EC50 of 74.8 nM. This EC50 is about 2.4-fold lower than that of the compound before.
Still for that read-out and setting: next, `CCC1(CC)CC(=O)N([C@@H]2CCOc3ccc(C(=O)NC4c5ccccc5C(F)(F)C4(C)C)cc32)C(=N)N1` (stereo partly drawn) [Example 227, (4R)-4-(4,4-diethyl-2-imino-6-oxo-hexahydropyrimidin-1-yl)-N-(3,3-difluoro-2,2-dimethyl-indan-1-yl)chromane-6-carboxamide]: 1.3 nM; `CCC1(CC)CC(=O)N([C@@H]2C[C@H](OC)c3ccc(C(=O)N[C@@H]4c5ccccc5C[C@H]4O)cc32)C(=N)N1` [Example 117, (1S,3R)-3-(4,4-diethyl-2-imino-6-oxo-hexahydropyrimidin-1-yl)-N-[(1R,2R)-2-hydroxyindan-1-yl]-1-methoxy-indane-5-carboxamide]: 2.5 nM; `CCC1(CC)CC(=O)N(C2c3cc(C(=O)N[C@@H]4c5ccccc5C[C@H]4O)ccc3OCC2(C)OC)C(=N)N1` (stereo partly drawn) [Example 208, 4-(4,4-diethyl-2-imino-6-oxo-hexahydropyrimidin-1-yl)-N-[(1R,2R)-2-hydroxyindan-1-yl]-3-methoxy-3-methyl-chromane-6-carboxamide]: 3.7 nM.
The same measure, in the same setting: next, `CCC1(CC)CC(=O)N([C@@H]2CCOc3ccc(C(=O)N[C@H]4c5ccccc5C(F)(F)[C@@H]4O)cc32)C(=N)N1` [Example 197, (4R)-4-(4,4-diethyl-2-imino-6-oxo-hexahydropyrimidin-1-yl)-N-[(1S,2R)-3,3-difluoro-2-hydroxy-indan-1-yl]chromane-6-carboxamide]: 125 nM; `CC1(C)CC(=O)N([C@H]2CCS(=O)(=O)c3ccc(C(=O)N[C@H]4C[C@H](C(F)(F)F)Oc5ccccc54)cc32)C(=N)N1` [Example 294, (4S)-4-(2-imino-4,4-dimethyl-6-oxo-hexahydropyrimidin-1-yl)-1,1-dioxo-N-[(2R,4S)-2-(trifluoromethyl)chroman-4-yl]-3,4-dihydro-2H-thiochromene-6-carboxamide]: 259 nM.
On the same count and under the same terms, next, `CCC1(CC)CC(=O)N([C@@H]2C[C@@H](CCCCCCN)Oc3ccc(C(=O)N[C@H]4CC(C)(C)Oc5ccccc54)cc32)C(=N)N1` [Example 308, (2R,4R)-2-(6-aminohexyl)-4-(4,4-diethyl-2-imino-6-oxo-hexahydropyrimidin-1-yl)-N-[(4S)-2,2-dimethylchroman-4-yl]chromane-6-carboxamide]: 40.5 nM.
Regarding `CC[C@]1(C)CC(=O)N([C@@H]2C[C@@H](C)c3ccc(C(=O)N[C@@H]4c5ccccc5C[C@@]4(C)O)cc32)C(=N)N1` [Example 95, (1R,3R)-3-[(4R)-4-ethyl-2-imino-4-methyl-6-oxo-hexahydropyrimidin-1-yl]-N-[(1R,2R)-2-hydroxy-2-methyl-indan-1-yl]-1-methyl-indane-5-carboxamide], the EC50 amounted to 8.8 nM.
Still for that read-out and setting: for `CCC1(CC)CC(=O)N([C@@H]2CCOc3ccc(C(=O)NC4c5ccccc5CC4(F)F)cc32)C(=N)N1` (stereo partly drawn) [Example 152, (4R)-4-(4,4-diethyl-2-imino-6-oxo-hexahydropyrimidin-1-yl)-N-(2,2-difluoroindan-1-yl)chromane-6-carboxamide] the value was 7.7 nM.
On the same count and under the same terms, for `CCC1(CC)CC(=O)N([C@@H]2CCOc3c(Cl)cc(C(=O)N[C@H]4CC(C)(C)Oc5ccccc54)cc32)C(=N)N1` [Example 26A, (R)-8-chloro-4-(4,4-diethyl-2-imino-6-oxotetrahydropyrimidin-1(2H)-yl)-N-((S)-2,2-dimethylchroman-4-yl)chromane-6-carboxamide] the value was 1.3 nM.
Still for that read-out and setting: next, `CC1(C)CC(=O)N([C@@H]2CC(C)(C)c3ccc(C(=O)N[C@@H]4c5ccccc5OC(C)(C)[C@H]4O)cc32)C(=N)N1` [Example 160, (3R)-N-[(3S,4R)-3-hydroxy-2,2-dimethyl-chroman-4-yl]-3-(2-imino-4,4-dimethyl-6-oxo-hexahydropyrimidin-1-yl)-1,1-dimethyl-indane-5-carboxamide]: 8.3 nM; `CC1(C)CC(=O)N([C@@H]2CCc3ccc(C(=O)N[C@@H]4c5ccccc5C[C@@]4(C)O)cc32)C(=N)N1` [Example 80, (3R)-N-[(1R,2R)-2-hydroxy-2-methyl-indan-1-yl]-3-(2-imino-4,4-dimethyl-6-oxo-hexahydropyrimidin-1-yl)indane-5-carboxamide]: 18 nM; `CC[C@]1(C)CC(=O)N([C@@H]2C[C@@H](C)Oc3ccc(C(=O)N[C@@H]4c5ccccc5C[C@H]4O)cc32)C(=N)N1` [Example 102, (2R,4R)-4-[(4R)-4-ethyl-2-imino-4-methyl-6-oxo-hexahydropyrimidin-1-yl]-N-[(1R,2R)-2-hydroxyindan-1-yl]-2-methyl-chromane-6-carboxamide]: 14 nM.
`CCC1(CC)CC(=O)N([C@@H]2CCCc3ccc(C(=O)N[C@@H]4c5ccccc5OC[C@H]4O)cc32)C(=N)N1` [Example 125, (4R)-4-(4,4-diethyl-2-imino-6-oxo-hexahydropyrimidin-1-yl)-N-[(3S,4R)-3-hydroxychroman-4-yl]tetralin-6-carboxamide] gave an EC50 of 2.1 nM. Compared with the last compound, the EC50 is about 6.7-fold lower.
The same measure, in the same setting: for `CCC1(CC)CC(=O)N([C@@H]2CCOc3ccc(C(=O)N[C@@H]4c5ccccc5C(F)(F)[C@H]4O)cc32)C(=N)N1` [Example 198, (4R)-4-(4,4-diethyl-2-imino-6-oxo-hexahydropyrimidin-1-yl)-N-[(1R,2S)-3,3-difluoro-2-hydroxy-indan-1-yl]chromane-6-carboxamide] the value was 11.3 nM; for `CCC1(CC)CC(=O)N([C@@H]2CCOc3c(Cl)cc(C(=O)N[C@@H]4c5ccccc5OC(C)(C)[C@H]4O)cc32)C(=N)N1` [Example 29A, (R)-8-chloro-4-(4,4-diethyl-2-imino-6-oxotetrahydropyrimidin-1(2H)-yl)-N-((3S,4R)-3-hydroxy-2,2-dimethylchroman-4-yl)chromane-6-carboxamide], 1 nM.
Compound `CCC1(CC)CC(=O)N([C@H]2c3cc(C(=O)N[C@@H]4c5ccccc5C[C@H]4O)ccc3O[C@]2(C)COC)C(=N)N1` [Example 75B, (2S,3S)-3-(4,4-diethyl-2-imino-6-oxotetrahydropyrimidin-1(2H)-yl)-N-((1R,2R)-2-hydroxy-2,3-dihydro-1H-inden-1-yl)-2-(methoxymethyl)-2-methyl-2,3-dihydrobenzofuran-5-carboxamide] showed an EC50 of 9.5 nM.
Same read-out and setting: for `CC1(C)CC(=O)N([C@@H]2CCc3ccc(C(=O)N[C@@H]4c5ccccc5C[C@H]4O)cc32)C(=N)N1` [Example 78, (3R)-N-[(1R,2R)-2-hydroxyindan-1-yl]-3-(2-imino-4,4-dimethyl-6-oxo-hexahydropyrimidin-1-yl)indane-5-carboxamide] the value was 8.9 nM.
